According to the supplement of paper PMC10307832:

Columns and labels:
Experiment in all cases: relative viability (nuclei count vs DMSO), 5 days (fraction); higher = more cells survive
XMD13-2 + Palbociclib = compound: C1CC1C(=O)NC2=NNC3=C2C=CC(=C3)C4=CC(=CC=C4)C(=O)NC5CC5 [XMD13-2] + CC(=O)c1c(C)c2cnc(Nc3ccc(N4CCNCC4)cn3)nc2n(C2CCCC2)c1=O [Palbociclib] (partner 0.5 µM)
Summary of the method: (§1)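 The day after seeding in 1536-well plates, lung cancer cell lines were treated by pin tool with a single drug, or with a fixed anchor-drug dose together with five library-drug doses (not always all listed) in √10 steps. After 5 days, a combined fix-and-stain solution (final 0.05% Triton X-100, 1% formaldehyde, 1 ug/ml Hoechst) was added. Nuclei counted on 4× images gave relative viability as treated counts over vehicle counts, reported as the median of duplicate plates.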

XMD13-2 + Tozasertib = compound: C1CC1C(=O)NC2=NNC3=C2C=CC(=C3)C4=CC(=CC=C4)C(=O)NC5CC5 [XMD13-2] + Cc1cc(Nc2cc(N3CCN(C)CC3)nc(Sc3ccc(NC(=O)C4CC4)cc3)n2)n[nH]1 [Tozasertib] (partner 0.1 µM)
Summary of the method: as §1

ALW-II-49-7 + OSI-027 = compound: Cc1ccc(C(=O)Nc2cccc(C(F)(F)F)c2)cc1Nc1cncc(C(N)=O)c1 [ALW-II-49-7] + COc1cccc2cc(-c3nc([C@H]4CC[C@H](C(=O)O)CC4)n4ncnc(N)c34)[nH]c12 [OSI-027] (partner 0.5 µM)
Summary of the method: as §1

Dasatinib + Phenformin = compound: Cc1nc(Nc2ncc(C(=O)Nc3c(C)cccc3Cl)s2)cc(N2CCN(CCO)CC2)n1 [Dasatinib] + N=C(N)NC(=N)NCCc1ccccc1 [Phenformin] (partner 250 µM)
Summary of the method: as §1

Row | Cell Line | relative viability (XMD13-2 + Palbociclib; first compound 0.05 µM) | relative viability (XMD13-2 + Palbociclib; first compound 0.1581 µM) | relative viability (XMD13-2 + Palbociclib; first compound 0.5 µM) | relative viability (XMD13-2 + Palbociclib; first compound 1.581 µM) | relative viability (XMD13-2 + Palbociclib; first compound 5 µM) | relative viability (XMD13-2 + Tozasertib; first compound 0.05 µM) | relative viability (XMD13-2 + Tozasertib; first compound 0.1581 µM) | relative viability (XMD13-2 + Tozasertib; first compound 0.5 µM) | relative viability (XMD13-2 + Tozasertib; first compound 1.581 µM) | relative viability (XMD13-2 + Tozasertib; first compound 5 µM) | relative viability (ALW-II-49-7 + OSI-027; first compound 0.08 µM) | relative viability (ALW-II-49-7 + OSI-027; first compound 0.253 µM) | relative viability (ALW-II-49-7 + OSI-027; first compound 0.8 µM) | relative viability (ALW-II-49-7 + OSI-027; first compound 2.53 µM) | relative viability (ALW-II-49-7 + OSI-027; first compound 8 µM) | relative viability (Dasatinib + Phenformin; first compound 0.005 µM) | relative viability (Dasatinib + Phenformin; first compound 0.01581 µM) | relative viability (Dasatinib + Phenformin; first compound 0.05 µM) | relative viability (Dasatinib + Phenformin; first compound 0.1581 µM) | relative viability (Dasatinib + Phenformin; first compound 0.5 µM)
1 | NCI-H1975 | 0.77 | 0.607 | 0.538 | 0.678 | 0.61 | 0.967 | 0.739 | 0.735 | 0.631 | 0.72 | 0.555 | 0.785 | 0.72 | 0.553 | 0.486 | 0.362 | 0.347 | 0.348 | 0.257 | 0.188
2 | NCI-H3122 | 0.191 | 0.202 | 0.142 | 0.177 | 0.181 | 0.467 | 0.395 | 0.378 | 0.377 | 0.373 | 0.905 | 0.254 | 1.05 |  | 1.09 | 0.36 | 0.364 | 0.363 | 0.326 | 0.295
3 | COR-L 105 | 0.405 | 0.412 | 0.4 | 0.404 | 0.42 | 0.374 | 0.385 | 0.339 | 0.376 | 0.425 | 0.644 | 0.719 | 0.66 | 0.644 | 0.753 | 0.441 | 0.378 | 0.312 | 0.278 | 0.16
4 | BEN | 0.462 | 0.508 | 0.492 | 0.489 | 0.468 | 0.512 | 0.436 | 0.491 | 0.488 | 0.42 | 0.548 | 0.317 | 0.294 | 0.288 | 0.403 | 0.249 | 0.213 | 0.249 | 0.241 | 0.206
5 | NCI-H1915 | 0.56 | 0.509 | 0.529 | 0.481 | 0.509 | 0.48 | 0.488 | 0.48 | 0.412 | 0.335 | 0.662 | 0.653 | 0.573 | 0.49 | 0.381 | 0.339 | 0.313 | 0.266 | 0.17 | 0.164
6 | NCI-H650 | 0.321 | 0.335 | 0.33 | 0.305 | 0.31 | 0.783 | 0.748 | 0.781 | 0.716 | 0.723 | 0.519 | 0.509 | 0.511 | 0.419 | 0.391 | 0.496 | 0.438 | 0.433 | 0.375 | 0.317
7 | NCI-H1650 | 0.29 | 0.399 | 0.385 | 0.332 | 0.312 | 0.439 | 0.36 | 0.471 | 0.381 | 0.588 | 0.444 | 0.412 | 0.451 | 0.631 | 0.687 | 0.401 | 0.302 | 0.319 | 0.217 | 0.178
8 | NCI-H2009 | 0.244 | 0.229 | 0.215 | 0.204 | 0.153 | 0.849 | 0.7 | 0.798 | 0.728 | 0.749 | 0.615 | 0.67 | 0.532 | 0.408 | 0.406 | 0.554 | 0.47 | 0.366 | 0.206 | 0.187
9 | COR-L23 | 0.248 | 0.298 | 0.295 | 0.294 | 0.365 | 0.232 | 0.18 | 0.197 | 0.18 | 0.185 | 0.556 | 0.709 | 0.828 | 0.715 | 0.677 | 0.431 | 0.348 | 0.384 | 0.374 | 0.321
10 | NCI-H460 | 0.183 | 0.167 | 0.21 | 0.233 | 0.286 | 0.529 | 0.407 | 0.472 | 0.474 | 0.415 | 0.467 | 0.641 | 0.81 | 0.682 | 0.115 | 0.47 | 0.484 | 0.443 | 0.336 | 0.314
11 | NCI-H522 | 0.931 | 0.873 | 1.22 | 0.875 | 0.885 | 0.531 | 0.651 | 0.593 | 0.483 | 0.412 | 0.795 | 0.753 | 0.634 | 0.718 | 0.749 | 0.634 | 0.625 | 0.587 | 0.599 | 0.5
12 | LCLC-103H | 0.485 | 0.44 | 0.466 | 0.477 | 0.481 | 0.542 | 0.326 | 0.492 | 0.545 | 0.416 | 0.43 | 0.462 | 0.474 | 0.463 | 0.377 | 0.367 | 0.3 | 0.267 | 0.298 | 0.127
13 | HCC-827 | 0.512 | 0.462 | 0.439 | 0.459 | 0.377 | 0.428 | 0.409 | 0.427 | 0.401 | 0.386 | 0.737 | 0.696 | 0.714 | 0.621 | 0.64 | 0.411 | 0.362 | 0.328 | 0.293 | 0.104
14 | NCI-H322M | 0.494 | 0.491 | 0.498 |  | 0.49 | 0.563 | 0.52 | 0.456 | 0.456 | 0.517 | 0.54 | 0.469 | 0.444 | 0.447 | 0.406 | 0.604 | 0.61 | 0.443 | 0.206 | 0.195
15 | NCI-H1666 | 0.629 | 0.685 | 0.67 | 0.665 | 0.675 | 0.662 | 0.602 | 0.595 | 0.623 | 0.518 | 0.905 | 0.869 | 0.778 | 1.02 | 0.816 | 0.517 | 0.26 | 0.548 | 0.498 | 0.451
16 | NCI-H1793 | 0.357 | 0.34 | 0.327 | 0.324 | 0.273 | 0.432 |  | 0.334 | 0.379 | 0.322 | 0.257 | 0.301 | 0.24 | 0.235 | 0.248 | 0.319 | 0.314 | 0.313 | 0.264 | 0.2
